Experimental data published in US20240287173A1, “THERAPEUTIC AGENT FOR MUSCULAR ATROPHY” (NATIONAL UNIVERSITY CORPORATION KUMAMOTO UNIVERSITY, priority 2021, published 2024).

Experiments:
[1] = tested on: EDL myofibers derived from N2f/f mice; assay: Dll4-induced myofiber atrophy on recombinant Dll4-coated plates with γ-secretase inhibitor; type: cell-based, mouse; settings: DAPT 10 μM, 48 hours, recombinant Dll4-coated plate
Protocol: Culture dishes were coated with Notch ligand recombinant protein as reported by Sakai et al. (Sakai et al., PLOS One 12, e0177516 (2017)). Culture dishes were first coated with 10 μg/ml anti-Fc antibody for 1 hour at room temperature, followed by Matrigel (Corning) for 20 minutes. Fc antibody coated dishes were incubated with 5 ng/μl of Fc fusion protein of each Notch ligand (Dll1, Dll4, Jag1 and Jag2) for 1 hour at room temperature. Individual myofibers isolated from EDL muscle were placed in serum-free DMEM and cultured in a CO2 incubator for 48 hours. DAPT (10 µM) was used to inhibit γ-secretase activity in myofibers.
Cultured myofibers were captured using fluorescence microscopy and diameters were quantified from at least 15 individual myofibers using ImageJ (NIH).
Notch, which is a transmembrane receptor, has its transmembrane domain cleaved by γ-secretase, translocates its intracellular domain to the nucleus, and functions as a transcription factor. Therefore, DAPT, a γ-secretase inhibitor, was used to test the influence of γ-secretase activity on Dll4-induced myofiber atrophy. EDL myofibers derived from N2^f/f mice were cultured for 48 hours on a plate coated previously with recombinant Dll4 protein using a medium containing a γ-secretase inhibitor DAPT (10 μM) or PBS.

[2] = tested on: wild-type mouse mechanical load-induced muscle hypertrophy model; assay: Mechanical overload (tenotomy)-induced muscle hypertrophy model; type: in vivo; settings: DAPT 10 mg/kg i.p. after tenotomy, day 14, vs control mice
Protocol: (§1) Wild-type mice were used to examine the effects of inhibition of the Notch signaling pathway on muscle in vitro. Ultra-LEAF™ anti-mouse Dll4 antibody (Dll4 blocking antibody) or Ultra-LEAF™ American hamster IgG control antibody (control antibody) was administered intraperitoneally (10 mg/kg body weight) every 4 days in each experiment. Recombinant Dll4-Fc chimeric protein (rDll4) was dissolved in phosphate-buffered saline (PBS) and administered (0.5 mg/kg body weight) every two days. The γ-secretase inhibitor, DAPT, dissolved in 10% ethanol and corn oil, was administered every 2 days (10 mg/kg body weight). Control mice were injected intraperitoneally with an equivalent volume of vehicle in rDll4 or DAPT experiments.
Tenotomy surgery was performed on both legs of mice to induce muscle hypertrophy. In anesthetized mice, an incision was made along the midline of the calf after hair removal. […]
(§2) Isolated PLA or TA muscles were immediately frozen in liquid nitrogen-cooled 2-methylbutane and stored at −80° C. until analysis. […] Immunostained specimens were visualized using Alexa Fluor conjugated secondary antibodies and observed using fluorescence microscopy. Image-J (NIH) was used to quantify myofiber CSA from at least 500 myofibers and count the number of satellite cells per myofiber from at least 15 myofibers.

wild-type mouse DB model = assay: STZ-induced diabetes (DB) muscle atrophy model; type: in vivo; settings: DAPT 10 mg/kg i.p. every other day during DB induced period
Protocol: as §1, with “Control mice were injected intraperitoneally with an equivalent volume of vehicle in rDll4 or DAPT experiments.” left out
Mice were given a single intraperitoneal injection of STZ (150 mg/kg body weight) at a level that is toxic to insulin-producing pancreatic β-cells, or an equal volume of solvent (0.1 M citrate buffer, pH 4.5) as a control was injected. Mice were monitored for hyperglycemia on day 3 using Accu-chek (Roche), and only mice that achieved casual blood glucose levels>300 mg/dl were used in the experiment. […]
(§3) Total RNA was extracted from muscle tissue, isolated myofibers, cultured cells, and freshly sorted cells using ISOGEN II and RNeasy Kit (Qiagen) according to the manufacturer's instructions. […] Quantitative PCR (qPCR) was performed using THUNDERBIRD SYBR qPCR mix (TOYOBO) and real-time PCR detection system (CFX96; Bio Rad). […]

wild-type mouse HU model = assay: Hindlimb unloading (HU) muscle atrophy model; type: in vivo; settings: DAPT 10 mg/kg i.p. every other day during HU period
Protocol: as §1, with “Control mice were injected intraperitoneally with an equivalent volume of vehicle in rDll4 or DAPT experiments.” left out
as §3, §2

SMILES: C[C@H](NC(=O)Cc1cc(F)cc(F)c1)C(=O)N[C@H](C(=O)OC(C)(C)C)c1ccccc1 [DAPT]
- myofiber atrophy on Dll4 stimulation (myofiber diameter) [1]: resistant to Dll4 stimulation
- muscle hypertrophy (overload-induced PLA muscle weight gain) [2]: muscle hypertrophy was exhibited more readily
- muscle atrophy (muscle mass) (wild-type mouse DB model): significant suppression of muscle atrophy
- muscle atrophy (muscle mass of SOL, PLA, GAS) (wild-type mouse HU model): significant suppression of muscle atrophy
